Data reported in patent EP1534672B1, “RETINOL DERIVATIVES, THEIR USE IN THE TREATMENT OF CANCER AND FOR POTENTIATING THE EFFICACY OF OTHER CYTOTOXIC AGENTS” (priority 2002, dated 2004).
Where two headings read alike, the source gives them in different places. Marks after values point to notes of the source that are not given here.

Columns and labels:
Test in all cases: Drug cytotoxicity testing (viable cell count, trypan blue exclusion, cell growth inhibition)
Type in all cases: cell-based
[1] = tested on: Human Breast Adenocarcinoma Cell Line MDA-MB-231; settings: for IC50 / inhibition at 0.1 µM / inhibition at 0.01 µM / inhibition at 0.001 µM: Homo sapiens; for IC50: calculated from three concentrations, read-out: IC50 mol/L (a); for inhibition at 0.1 µM / inhibition at 0.01 µM / inhibition at 0.001 µM: read-out: Cell Growth Inhibition, %
Procedure, shortened: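 A549 cells (10 × 10^3/well) and MDA-MB-231 cells (12 × 10^3/well) were left to adhere for 24 h, then exposed to drugs in medium with 5% FBS for 2 days. Viable cells were counted by trypan blue exclusion after trypsinization. Growth inhibition (%) = (control − test)/control × 100, from three determinations in six replicates each.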

[2] = tested on: Human Lung Carcinoma Cell Line A549
[3] = tested on: Human Ovary Adenocarcinoma Cell Line SKOV-3; settings: alone or in formulation at molar ratio 1:6
Procedure: (§1) MDA-MB-231 cells were propagated in MEM culture medium with 2 mM L-glutamine, 10% heat-inactivated fetal bovine serum (FBS) and antibiotics. DU 145 cells were cultured in MEM culture medium containing 2 mM L-glutamine, 1 mM sodium pyruvate, 10% FBS and antibiotics. SKOV-3 cells were cultured in McCoy's 5A culture medium, supplemented with 1,5 mM L-glutamine, 10% FBS and antibiotics. A549 cells were cultured in Ham's F-12 culture medium with 1 mM L-glutamine, 10% FBS and antibiotics. All media and supplements were purchased from Sigma-Aldrich (St.Louis, MO, USA). Cell propagation of all lines was carried out in Falcon™ 25 cm^2 cultivation flasks (Becton Dickinson Labware).
(§2) Drug cytotoxicity testing was carried out with using Falcon™ 96-well cultivation plates for adherent cells (Becton Dickinson Labware). These plates were seeded by cells either at 12 × 10^3 MDA-MB-231 cells/well, or at 12 × 10^3 DU 145 cells/well, or at 14 × 10^3 SKOV-3 cells/well, or at 10 × 10^3 A549 cells/well in a volume of 200 µL/well.
(§3) The cell cultures in cultivation plates were allowed to adhere for 24 hour of incubation. On day 1 after cell seeding, 2 µL solutions of the drugs to be tested in medium with 5% FBS was added to the cultures. In the control cultures, 2 µL of medium with 5% FBS was added as solvent control. The cells were incubated for 2 consecutive days. At the end of the incubation period adherent cells were detached by trypsinization and the number of viable cells was counted using trypan blue exclusion test and a hemocytometer. All data were derived from an average of three determinations each in six replicates. The results were expressed as mean cell number ± SE and the differences between control and test series evaluated by means of Student's t-test. The drug cytotoxicity was evaluated based on the extent of cell growth inhibition. The cell growth inhibition of the tested drugs was calculated as follows: Cell growth inhibition,% = (Control-TestSeries)/(Control) × 100 [formula]

[4] = tested on: Human Prostate Carcinoma Cell Line DU 145; settings: alone or in formulation at molar ratio 1:6
Procedure: as §1, §2, §3

[5] = cytotoxic drug 10^-7 mol/L (100 nM), alone or in formulation at molar ratio 1:6, working solutions in medium with 5% FBS, listed as docetaxel, trihydrate
[6] = cytotoxic drug 10^-7 mol/L (100 nM), alone or in formulation at molar ratio 1:6, working solutions in medium with 5% FBS, trihydrate
[7] = cytotoxic drug 10^-7 mol/L (100 nM), alone or in formulation at molar ratio 1:6, working solutions in medium with 5% FBS, trihydrate, 0.1 µM
[8] = cytotoxic drug 10^-8 mol/L, alone or in formulation at molar ratio 1:6, working solutions in medium with 5% FBS
[9] = cytotoxic drug 10^-9 mol/L, alone or in formulation at molar ratio 1:6, working solutions in medium with 5% FBS
[10] = cytotoxic drug alone 10^-7 mol/L, average of positive controls in medium with 5% FBS, normal saline and saline with 2,3 mM CaCl2
[11] = cytotoxic drug alone 10^-8 mol/L, average of positive controls in medium with 5% FBS, normal saline and saline with 2,3 mM CaCl2
[12] = cytotoxic drug alone 10^-9 mol/L, average of positive controls in medium with 5% FBS, normal saline and saline with 2,3 mM CaCl2
[13] = cytotoxic drug 10^-7 mol/L (100 nM), working solutions in medium with 5% FBS, listed as docetaxel, trihydrate
[14] = cytotoxic drug 10^-7 mol/L (100 nM), working solutions in medium with 5% FBS, trihydrate
[15] = cytotoxic drug 10^-7 mol/L (100 nM), working solutions in medium with 5% FBS, trihydrate, 0.1 µM
[16] = cytotoxic drug 10^-8 mol/L, working solutions in medium with 5% FBS
[17] = cytotoxic drug 10^-9 mol/L, working solutions in medium with 5% FBS

CC(=O)O[C@@]12CO[C@@H]1C[C@H](O)[C@@]1(C)C(=O)[C@H](O)C3=C(C)[C@@H](OC(=O)[C@H](O)[C@@H](NC(=O)OC(C)(C)C)c4ccccc4)C[C@@](O)([C@@H](OC(=O)c4ccccc4)[C@H]21)C3(C)C [Docetaxel, (2R,3S)-N-carboxy-3-phenylisoserine, N-tert-butyl ester, 13-ester with 5β-20-epoxy-1,2α ,4,7β,10β,13α -hexahydroxytax-11-en-9-one 4-acetate 2-benzoate, trihydrate]
IC50 ([1]; MDA-MB-231, as concentration of cytotoxic drug, alone or in formulation at molar ratio 1:6, medium with 5% FBS): 3.6 nM | inhibition at 0.1 µM ([1]; MDA-MB-231, cytotoxic drug 10^-7 mol/L (100 nM), alone or in formulation at molar ratio 1:6, working solutions in medium with 5% FBS): 73.3% | inhibition at 0.01 µM ([1]; MDA-MB-231, cytotoxic drug 10^-8 mol/L, alone or in formulation at molar ratio 1:6, working solutions in medium with 5% FBS): 58.1% | inhibition at 0.001 µM ([1]; MDA-MB-231, cytotoxic drug 10^-9 mol/L, alone or in formulation at molar ratio 1:6, working solutions in medium with 5% FBS): 38.7% | inhibition at 0.1 µM ([1]; MDA-MB-231, cytotoxic drug alone 10^-7 mol/L, average of positive controls in medium with 5% FBS, normal saline and saline with 2,3 mM CaCl2): 76.5% | inhibition at 0.01 µM ([1]; MDA-MB-231, cytotoxic drug alone 10^-8 mol/L, average of positive controls in medium with 5% FBS, normal saline and saline with 2,3 mM CaCl2): 56.3% | inhibition at 0.001 µM ([1]; MDA-MB-231, cytotoxic drug alone 10^-9 mol/L, average of positive controls in medium with 5% FBS, normal saline and saline with 2,3 mM CaCl2): 36.4% | IC50 ([1]; MDA-MB-231, cytotoxic drug alone, average of positive controls): 4.6 nM | Tumor Cell Number, × 10^3 [1, 5]: 15.4 ± 1.02 × 10^3 | Tumor Cell Number, × 10^3 [1, 6]: 13.7 ± 1.03 × 10^3 | Cell Growth Inhibition, % [1, 7]: 75.4* % | Tumor Cell Number, × 10^3 [1, 8]: 23.4 ± 2.15 × 10^3 | Tumor Cell Number, × 10^3 [1, 9]: 34.2 ± 2.28 × 10^3 | Tumor Cell Number, × 10^3 [1, 10]: 13.6±0.72 × 10^3 | Tumor Cell Number, × 10^3 [1, 11]: 25.3±1.18 × 10^3 | Tumor Cell Number, × 10^3 [1, 12]: 36.8±1.70 × 10^3 | inhibition at 0.1 µM ([2]; Homo sapiens, A549, cytotoxic drug 10^-7 mol/L (100 nM), alone or in formulation at molar ratio 1:6, working solutions in medium with 5% FBS): 80.3% | inhibition at 0.01 µM ([2]; Homo sapiens, A549, cytotoxic drug 10^-8 mol/L, alone or in formulation at molar ratio 1:6, working solutions in medium with 5% FBS): 71.4% | inhibition at 0.001 µM ([2]; Homo sapiens, A549, cytotoxic drug 10^-9 mol/L, alone or in formulation at molar ratio 1:6, working solutions in medium with 5% FBS): 37.5% | inhibition at 0.1 µM ([2]; Homo sapiens, A549, cytotoxic drug alone 10^-7 mol/L, average of positive controls in medium with 5% FBS, normal saline and saline with 2,3 mM CaCl2): 80.3% | inhibition at 0.01 µM ([2]; Homo sapiens, A549, cytotoxic drug alone 10^-8 mol/L, average of positive controls in medium with 5% FBS, normal saline and saline with 2,3 mM CaCl2): 71% | inhibition at 0.001 µM ([2]; Homo sapiens, A549, cytotoxic drug alone 10^-9 mol/L, average of positive controls in medium with 5% FBS, normal saline and saline with 2,3 mM CaCl2): 36% | IC50 ([2]; Homo sapiens, A549, as concentration of cytotoxic drug, alone or in formulation at molar ratio 1:6, medium with 5% FBS, calculated from three concentrations, read-out: IC50 mol/L (a)): 2.2 nM | Tumor Cell Number, × 10^3 [2, 5]: 10.6 ± 0.72 × 10^3 | Tumor Cell Number, × 10^3 [2, 6]: 10.5 ± 0.97 × 10^3 | Cell Growth Inhibition, % [2, 7]: 80.8* % | Tumor Cell Number, × 10^3 [2, 8]: 15.6 ± 0.49 × 10^3 | Tumor Cell Number, × 10^3 [2, 9]: 34.1 ± 2.07 × 10^3 | Tumor Cell Number, × 10^3 [2, 10]: 11.0±0.73 × 10^3 | Tumor Cell Number, × 10^3 [2, 11]: 16.2±0.75 × 10^3 | Tumor Cell Number, × 10^3 [2, 12]: 35.7±1.51 × 10^3 | inhibition at 0.1 µM ([3]; Homo sapiens, SK-OV-3, cytotoxic drug 10^-7 mol/L (100 nM), working solutions in medium with 5% FBS): 68.7% | inhibition at 0.01 µM ([3]; Homo sapiens, SK-OV-3, cytotoxic drug 10^-8 mol/L, working solutions in medium with 5% FBS): 55.5% | inhibition at 0.001 µM ([3]; Homo sapiens, SK-OV-3, cytotoxic drug 10^-9 mol/L, working solutions in medium with 5% FBS): 34.2% | IC50 ([3]; Homo sapiens, SK-OV-3, as concentration of cytotoxic drug, medium with 5% FBS, calculated from three concentrations, read-out: IC50 mol/L (a)): 5.2 nM | Tumor Cell Number, × 10^3 [3, 13]: 16.1 ± 0.94 × 10^3 | Tumor Cell Number, × 10^3 [3, 14]: 16.8 ± 0.80 × 10^3 | Cell Growth Inhibition, % [3, 15]: 67.8* % | Tumor Cell Number, × 10^3 [3, 16]: 23.2 ± 2.19 × 10^3 | Tumor Cell Number, × 10^3 [3, 17]: 34.3 ± 2.01 × 10^3 | inhibition at 0.1 µM ([4]; Homo sapiens, DU-145, cytotoxic drug 10^-7 mol/L (100 nM), working solutions in medium with 5% FBS): 74.5% | inhibition at 0.01 µM ([4]; Homo sapiens, DU-145, cytotoxic drug 10^-8 mol/L, working solutions in medium with 5% FBS): 51.8% | inhibition at 0.001 µM ([4]; Homo sapiens, DU-145, cytotoxic drug 10^-9 mol/L, working solutions in medium with 5% FBS): 34.7% | IC50 ([4]; Homo sapiens, DU-145, as concentration of cytotoxic drug, medium with 5% FBS, calculated from three concentrations, read-out: IC50 mol/L (a)): 8 nM | Tumor Cell Number, × 10^3 [4, 13]: 14.2 ± 0.85 × 10^3 | Tumor Cell Number, × 10^3 [4, 14]: 10.8 ± 0.94 × 10^3 | Cell Growth Inhibition, % [4, 15]: 74.0* % | Tumor Cell Number, × 10^3 [4, 16]: 20.0 ± 1.16 × 10^3 | Tumor Cell Number, × 10^3 [4, 17]: 27.1 ± 1.07 × 10^3
